Measurements as given in ChEMBL document CHEMBL5390322, “Discovery of 5-Azaquinoxaline Derivatives as Potent and Orally Bioavailable Allosteric SHP2 Inhibitors” (ACS Med Chem Lett, 2023).
≈ marks a conversion by molar mass, not a printed value.

How the values were obtained:
[1] = Metabolic stability in mouse liver microsome assessed as intrinsic clearance at […] preincubated for 5 mins followed by NADPH addition and measured after 20 mins by LC-MS analysis; type: ADME; conditions: liver microsomes, dose 2.5 µM, time 25 min, read-out: CLH
[2] = Metabolic stability in human liver microsome assessed as intrinsic clearance at […] preincubated for 5 mins followed by NADPH addition and measured after 20 mins by LC-MS analysis; type: ADME; conditions: liver microsomes, dose 2.5 µM, time 25 min, read-out: CLH
[3] = Permeability of compound from apical to basolateral side in LLC-PK1 cells incubated for 2 hrs by LC-MS/MS analysis; type: ADME, cell-based, Sus scrofa; conditions: pig, read-out: permeability
[4] = Metabolic stability in human hepatocyte assessed as intrinsic clearance incubated for 1 to 2 hrs by LC-MS analysis; type: ADME, cell-based; conditions: hepatocytes, time 1-2 hrs, read-out: CLH
[5] = target: T1, Mitogen-activated protein kinase; ERK1/ERK2 (Homo sapiens, UniProt P27361+P28482); assay: Inhibition of ERK1/2 phosphorylation at Thr202/Tyr204 residues in human KYSE520 cells incubated for 1 hrs by Western blot analysis; type: cell-based
[6] = Metabolic stability in mouse hepatocyte assessed as intrinsic clearance incubated for 1 to 2 hrs by LC-MS analysis; type: ADME, cell-based; conditions: hepatocytes, time 1-2 hrs, read-out: CLH
[7] = target: T2, Tyrosine-protein phosphatase non-receptor type 11 (Homo sapiens, UniProt Q06124); assay: Allosteric inhibition of recombinant full length 6His-tagged SHP2 (2 to 527 residues) (unknown origin) expressed in Escherichia coli using DiFMUP as substrate incubated for 15 mins by microplate reader analysis
T2 sequence (Q06124 whole entry): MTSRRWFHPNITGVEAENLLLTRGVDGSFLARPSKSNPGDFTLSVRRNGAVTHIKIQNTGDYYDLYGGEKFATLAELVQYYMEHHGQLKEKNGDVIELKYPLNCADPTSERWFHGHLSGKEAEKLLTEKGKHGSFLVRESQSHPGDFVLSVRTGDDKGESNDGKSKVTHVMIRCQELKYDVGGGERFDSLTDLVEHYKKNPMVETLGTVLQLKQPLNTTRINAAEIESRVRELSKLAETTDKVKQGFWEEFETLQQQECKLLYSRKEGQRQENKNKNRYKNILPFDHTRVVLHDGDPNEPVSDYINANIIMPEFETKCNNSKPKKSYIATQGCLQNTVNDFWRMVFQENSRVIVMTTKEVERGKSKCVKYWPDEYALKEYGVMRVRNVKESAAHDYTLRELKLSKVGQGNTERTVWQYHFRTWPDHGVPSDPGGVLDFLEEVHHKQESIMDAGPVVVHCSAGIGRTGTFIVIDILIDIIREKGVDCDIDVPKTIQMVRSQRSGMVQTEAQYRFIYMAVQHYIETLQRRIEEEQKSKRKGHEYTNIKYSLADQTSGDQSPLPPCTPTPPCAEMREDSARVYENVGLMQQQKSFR

[8] = Solubility of the compound in FaSSIF at 1 mg/ml incubated for 24 hrs by LC-MS/MS analysis; type: physicochemical
[9] = Half life in CD-1 mouse at 1 mg/kg, iv measured upto 8 hrs by LC-MS/MS method; type: ADME, organism-based; conditions: in vivo
[10] = Clearance in CD-1 mouse at 1 mg/kg, iv measured upto 8 hrs by LC-MS/MS method; type: ADME, organism-based; conditions: in vivo
[11] = target: T1, Mitogen-activated protein kinase; ERK1/ERK2; conditions: KYSE520, time 1.0 hrs
[12] = target: T1, Mitogen-activated protein kinase; ERK1/ERK2; conditions: KYSE520, time 1.0 hrs; remark: listed apart in the source
[13] = Cmax in CD-1 mouse at 10 mg/kg, po measured upto 24 hrs by LC-MS/MS method; type: ADME, organism-based; set-up: dose 10 mg/kg, time < 24 hrs, route po; conditions: in vivo
[14] = Oral bioavailability in CD-1 mouse at 10 mg/kg measured upto 24 hrs by LC-MS/MS method; type: ADME, organism-based; conditions: in vivo
[15] = Volume of distribution at steady state in CD-1 mouse at 1 mg/kg, iv measured upto 8 hrs by LC-MS/MS method; type: ADME, organism-based; conditions: in vivo, read-out: Vdss
[16] = Tmax in CD-1 mouse at 10 mg/kg, po measured upto 24 hrs by LC-MS/MS method; type: ADME, organism-based; conditions: in vivo
[17] = AUClast in CD-1 mouse at 10 mg/kg, po measured upto 24 hrs by LC-MS/MS method; type: ADME, organism-based; set-up: time < 24 hrs, dose 10 mg/kg, route po; conditions: in vivo

T1 sequence (P27361 whole entry, looked up): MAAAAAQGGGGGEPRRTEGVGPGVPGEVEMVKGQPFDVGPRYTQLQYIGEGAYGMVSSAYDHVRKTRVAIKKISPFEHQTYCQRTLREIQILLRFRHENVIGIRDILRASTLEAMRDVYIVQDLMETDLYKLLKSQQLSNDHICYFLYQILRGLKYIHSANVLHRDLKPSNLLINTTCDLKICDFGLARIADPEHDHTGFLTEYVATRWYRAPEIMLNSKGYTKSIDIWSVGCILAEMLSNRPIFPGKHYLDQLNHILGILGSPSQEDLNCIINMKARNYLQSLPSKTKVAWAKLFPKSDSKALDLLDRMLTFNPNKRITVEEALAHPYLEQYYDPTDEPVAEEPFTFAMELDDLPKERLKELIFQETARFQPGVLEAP
T1 sequence (P28482 whole entry, looked up): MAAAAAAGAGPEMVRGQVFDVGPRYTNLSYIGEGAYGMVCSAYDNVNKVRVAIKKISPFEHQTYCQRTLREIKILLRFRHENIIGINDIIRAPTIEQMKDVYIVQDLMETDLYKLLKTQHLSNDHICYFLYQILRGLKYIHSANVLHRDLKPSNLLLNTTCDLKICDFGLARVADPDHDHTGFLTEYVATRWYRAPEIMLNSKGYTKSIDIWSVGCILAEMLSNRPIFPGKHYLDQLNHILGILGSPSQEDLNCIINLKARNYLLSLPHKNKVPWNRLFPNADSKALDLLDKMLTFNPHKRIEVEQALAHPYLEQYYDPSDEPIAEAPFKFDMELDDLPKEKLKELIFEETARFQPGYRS

| SMILES | CLint scaled at […] [1] [mL/min/kg] | CLint scaled at […] [2] [mL/min/kg] | Papp A→B at 2 h [3] [×10⁻⁶ cm/s] | CLint scaled at 10000 µM [4] [mL/min/kg] | IC50 [5] [nM] | CLint scaled [6] [mL/min/kg] | IC50 [7] [nM] | also measured |
| --- | --- | --- | --- | --- | --- | --- | --- | --- |
| Cc1ccc2c(n1)CC1(CCN(c3cnc4nc(Sc5ccnc(N)c5Cl)ccc4n3)CC1)[C@@H]2N | 41 | 14 | 10 | 15 | 17 | 35 | – | – |
| COc1cnc2c(c1)[C@@H](N)C1(CCN(c3cnc4nc(Sc5ccnc(N)c5Cl)ccc4n3)CC1)C2 | 29 | 7 | 6 | 12 | 8 | 30 | – | – |
| Nc1nccc(Sc2ccc3nc(N4CCC5(CC4)Cc4ncc(F)cc4[C@H]5N)cnc3n2)c1Cl | 47 | 13 | 9 | 12 | 6 | 26 | – | – |
| Nc1nccc(Sc2ccc3nc(N4CCC5(CC4)Cc4cc(Cl)ccc4[C@H]5N)cnc3n2)c1Cl | – | – | – | – | 78 | – | 35 | solubility at 24 h [8]: 24 µg/mL (≈ 45.8 µM) |
| CC1(N)CCN(c2cnc3nc(Sc4cccn5nccc45)ccc3n2)CC1 | – | – | 14 | – | 1388 | – | – | – |
| CC1(CN)CCN(c2cnc3nc(Sc4ccnc(N)c4Cl)ccc3n2)CC1 | 14 | 5 | 10 | 2 | 68 | 16 | – | solubility at 24 h [8]: 909 µg/mL (≈ 2190 µM) |
| Nc1nccc(Sc2ccc3nc(N4CCC5(CC4)C[C@@H](O)C[C@H]5N)cnc3n2)c1Cl | 10 | – | 1 | 8 | 142 | 31 | – | – |
| Nc1nccc(Sc2ccc3nc(N4C[C@H]5C[C@@H](C4)[C@H]5N)cnc3n2)c1Cl | 28 | 4 | 14 | 5 | 227 | 23 | – | – |
| Nc1nccc(Sc2ccc3nc(N4CCC5(CC4)Cc4cc(F)ccc4[C@H]5N)cnc3n2)c1Cl | 17 | 5 | 6 | 12 | 10 | 37 | – | – |
| Cc1ccc2c(c1)[C@@H](N)C1(CCN(c3cnc4nc(Sc5ccnc(N)c5Cl)ccc4n3)CC1)C2 | 25 | 6 | – | 10 | 17 | 33 | – | – |
| C[C@@H]1OCC2(CCN(c3cnc4nc(Sc5ccnc(N)c5Cl)ccc4n3)CC2)[C@@H]1N | 24 | 3 | 13 | 5 | 58 | 16 | 72 | half-life [9]: 1.48 h; clearance [10]: 34.3 mL/min/kg; fIC50 [11]: 0.244 µg/mL; fIC90 [11]: 2.2 µg/mL; fIC50 [12]: 0.244 µg/mL; fIC90 [12]: 2.2 µg/mL; Cmax [13]: 533 ng/mL; bioavailability [14]: 58.1%; solubility at 24 h [8]: 894 µg/mL (≈ 1950 µM); Vd [15]: 3.46 L/kg; Tmax [16]: 2 h; AUC(0-t) at 24 h [17]: 2820 ng·h/mL |
| CC1(N)CCN(c2cnc3c(Sc4cccc(Cl)c4Cl)cnn3c2)CC1 | – | – | – | – | > 20000 | – | 634 | – |
| Nc1nccc(Sc2ccc3nc(N4CCC[C@H](N)CC4)cnc3n2)c1Cl | 19 | 4 | 1 | 3 | 84 | 8 | 102 | – |
| CC1(N)CCN(c2ccc(Sc3cccc(Cl)c3Cl)n3nccc23)CC1 | – | – | – | – | > 20000 | – | 3690 | – |
| COc1ccc2c(c1)[C@@H](N)C1(CCN(c3cnc4nc(Sc5ccnc(N)c5Cl)ccc4n3)CC1)C2 | 21 | 6 | – | 11 | 29 | 33 | 47 | – |
| COc1nccc(Sc2ccc3nc(N4CCC(C)(N)CC4)cnc3n2)c1Cl | 20 | 6 | 12 | 2 | 660 | 7 | 355 | – |
| Nc1nccc(Sc2ccc3nc(N4CCC5(CC4)Cc4ccccc4[C@H]5N)cnc3n2)c1Cl | 19 | 8 | 1 | 10 | 8 | 34 | – | solubility at 24 h [8]: 60 µg/mL (≈ 122 µM) |
| CNC1(C)CCN(c2cnc3nc(Sc4ccnc(N)c4Cl)ccc3n2)CC1 | 20 | 3 | 12 | 5 | 202 | 16 | – | solubility at 24 h [8]: 1000 µg/mL (≈ 2400 µM) |
| Nc1nccc(Sc2ccc3nc(N4[C@H]5CC[C@H]4CC(N)C5)cnc3n2)c1Cl (some centres undefined) | 18 | 3 | 3 | 2 | 28 | 17 | – | solubility at 24 h [8]: 1000 µg/mL (≈ 2420 µM) |

Now from value to compound, other results behind:

| CLint scaled at […] [1] [mL/min/kg] | CLint scaled at […] [2] [mL/min/kg] | Papp A→B at 2 h [3] [×10⁻⁶ cm/s] | CLint scaled at 10000 µM [4] [mL/min/kg] | IC50 [5] [nM] | CLint scaled [6] [mL/min/kg] | IC50 [7] [nM] | SMILES | also measured |
| --- | --- | --- | --- | --- | --- | --- | --- | --- |
| 18 | 4 | 11 | 2 | 767 | 10 | – | CC1(N)CCN(c2cnc3nc(Oc4cccc(Cl)c4Cl)ccc3n2)CC1 | – |
| 23 | 9 | 9 | 7 | 991 | 12 | – | CC1(N)CCN(c2cnc3nc(Sc4cccc(C#N)c4Cl)ccc3n2)CC1 | – |
| – | – | – | – | > 20000 | – | – | CC1(N)CCN(c2cnc3cc(-c4cccc(Cl)c4Cl)ccc3n2)CC1 | – |
| 22 | 3 | 13 | 2 | 510 | 8 | – | CC1(N)CCN(c2cnc3nc(-c4cccc5ccccc45)ccc3n2)CC1 | – |
| 51 | 9 | – | 9 | 786 | 45 | 104 | COc1cccc(Sc2ccc3nc(N4CCC(C)(N)CC4)cnc3n2)c1Cl | – |
| 30 | 3 | 10 | 2 | 58 | 8 | – | CC1(N)CCN(c2cnc3nc(Sc4ccnc(N)c4Cl)ccc3n2)CC1 | – |
| 25 | 3 | – | 2 | 471 | 8 | – | CC1(N)CCN(c2cnc3nc(-c4cccc(Cl)c4Cl)ccc3n2)CC1 | – |
| – | – | – | – | 1951 | – | 1930 | CC1(N)CCN(c2cnc3c(cnn3-c3cccc(Cl)c3Cl)n2)CC1 | – |
| – | – | – | – | 2785 | – | 208 | CC1(N)CCN(c2ncc(Sc3cccc(Cl)c3Cl)n3nccc23)CC1 | – |
| – | – | – | – | 1068 | – | 47 | CC1(N)CCN(c2cnc3nc(Sc4cccc(Cl)c4Cl)ccc3n2)CC1 | – |
| – | – | – | – | > 20000 | – | 530 | CC1(N)CCN(c2ccnc3c(Sc4cccc(Cl)c4Cl)cnn23)CC1 | – |
| – | – | – | – | 254 | – | – | CC1(N)CCN(c2cnc(-c3cccc(Cl)c3Cl)c(N)n2)CC1 | – |
| – | – | 19 | – | 1184 | – | 344 | CC1(N)CCN(c2cnc3nc(-c4cccc(F)c4Cl)ccc3n2)CC1 | – |
